In patent publication US20260028352A1, “MACROCYCLIC IMIDAZO [1,2-B] PYRIDAZINE DERIVATIVE, PREPARATION METHOD THEREFOR, AND USE THEREOF” (SUZHOU LANGRUI BIOPHARMACEUTICAL CO., LTD., priority 2022, published 2026):

Legend:
Assay type in all cases: cell-based
[1] = test system: Ba/F3-TPM3-NTRK1-G667C cells; assay: Growth inhibition of Ba/F3-TPM3-NTRK1-G667C cells (Cell Titer-Glo); conditions: 72 hours, CTG; read-out: inhibitory activity IC50 Ba/F3-TPM3-NTRK1-G667C
Experimental: (§1) Then the solutions were subjected to a gradient dilution with DMSO: a clean, sterile V-bottom 96-well microplate was placed in the biological safety cabinet. First, 4 μL of DMSO was added to well B2 and 10 μL of DMSO was added to wells B3-B11 respectively; Next, 6 μL of the 10 mM solution was added to well B2. The microplate was pipetted up and down 10 times for mixing. […] Mixing was performed by pipetting up and down 10 times. The solution was diluted in order until well B10. only DMSO was added to well B11 (no compound).
(§2) 6× Compound Solution Preparation (6-fold dilution, × represents dilution factor): (Initial final concentration: 10 μM), a clean, sterile V-bottom 96-well microplate was placed in the biological safety cabinet. 99 μL of cell culture medium was added to each well from B2 to G11. By using a 12-channel pipettor, 1 μL of the compound solution prepared in the previous step was added into the corresponding wells. The solutions were pipetted up and down 10 times to mix the solutions. The highest concentration of compound in this step was 60 μM.
(§3) Treatment of Cells: the above-prepared cell culture plate was taken out of the incubator. 20 μL of compound solution from each well was added to the corresponding cell culture wells. The lowest pipetting speed was used and touching the bottom of the plate was avoided. The culture plate was gently shaked to mix the compound solution, then the plate was returned to the incubator for further culture for 72 hours.
(§4) The highest treatment concentration of the compound was 10 μM. After 72 hours of treatment, the Cell Titer-Glo (CTG) assay was performed. First, the cell culture plate was removed from the CO2 incubator and allowed to stand at room temperature for 30 minutes to ensure uniform temperature of the plate. The pre-prepared Cell Titer-Glo reagent (following the manufacturer's instructions) was taken and allowed to stand at room temperature to thaw. 60 μL of Cell Titer-Glo reagent was added to each well containing cells. The cells were incubated on a horizontal shaker in a dark place at 225 rpm for 1 hour at room temperature. Then, a Tecan Spark microplate reader was used to read the plate using chemiluminescence according to the manufacturer's instructions.

[2] = test system: Ba/F3-TPM3-NTRK1-G595R cells; assay: Growth inhibition of Ba/F3-TPM3-NTRK1-G595R cells (Cell Titer-Glo); conditions: 72 hours, CTG; read-out: inhibitory activity IC50 Ba/F3-TPM3-NTRK1-G595R
Experimental: as §1, §2, §3, §4

[3] = test system: Ba/F3-TPM3-NTRK1-WT cells; assay: Growth inhibition of Ba/F3-TPM3-NTRK1-WT cells (Cell Titer-Glo); conditions: 72 hours, CTG; read-out: inhibitory activity IC50 Ba/F3-TPM3-NTRK1-WT
Experimental: as §1, §2, §3, §4

Row | Structure (SMILES) | IC50 [1] [nM] | IC50 [2] [nM] | IC50 [3] [nM]
1 | Fc1ccc2c(c1)[C@H]1C[C@H](F)CN1c1ccc3ncc(n3n1)-c1cc(ccn1)CO2 [Example I-50, (14bR,16S,E)-13,16-difluoro-14b,15,16,17-tetrahydro-9H-1,19-etheno-4,8-(metheno)benzo[b]imidazo[1,5-h]pyrrolo[2,1-d][1]oxa[5,7,8,11]tetraazacyclopentadecine] | 0.3 | 0.2 | 0.1
2 | C[C@@H]1CCc2ncc(F)cc2[C@H]2CCCN2c2ccn3ncc(c3n2)C(=O)N1 [LOXO-195, reference compound] | 169 | 10 | 3.07
3 | Fc1cnc2c(c1)[C@H]1C[C@H](F)CN1c1ccc3ncc(n3n1)-c1nccc(n1)CO2 [Example I-64, (14bR,16S,E)-13,16-difluoro-14b,15,16,17-tetrahydro-9H-4,8-(azeno)-1,19-ethenoimidazo[1,5-h]pyrido[2,3-b]pyrrolo[2,1-d][1]oxa[5,7,8,11]tetraazacyclopentadecine] | 8.5 | 0.9 | 0.3
4 | Fc1ccc2c(c1)[C@H]1C[C@H](F)CN1c1ccc3ncc(n3n1)-c1cc(ncn1)CCO2 [Example I-70, (3^2R,3^4S,E)-3^4,4^5-difluoro-5-oxa-2(3,6)-imidazo[1,2-b]pyridazina-1(4,6)-pyrimidina-3(1,2)-pyrrolidina-4(1,2)-benzenacycloheptaphane] | 4.6 | 1.1 | 0.12
5 | C[C@@H]1Cc2ccnc(c2)-c2cnc3ccc(nn23)N2C[C@@H](F)C[C@@H]2c2cc(F)cnc2O1 [Example I-40, (3^2R,3^4S,6R,E)-3^4,4^5-difluoro-6-methyl-5-oxa-2(3,6)-imidazo[1,2-b]pyridazina-1(2,4),4(3,2)-dipyridina-3(1,2)-pyrrolidinacycloheptaphane] | 0.1 | 0.1 | 0.01
6 | Fc1cnc2c(c1)[C@H]1C[C@H](F)CN1c1ccc3ncc(n3n1)-c1cc(ncn1)CCO2 [Example I-72, (3^2R,3^4S,E)-3^4,4^5-difluoro-5-oxa-2(3,6)-imidazo[1,2-b]pyridazina-1(4,6)-pyrimidina-4(3,2)-pyridina-3(1,2)-pyrrolidinacycloheptaphane] | 7.4 | 1.5 | 0.07
7 | CC1Nc2ccc3ncc(n3n2)-c2cc(ncn2)CCOc2ccccc21 (stereo not drawn) [Example I-11, […]] | 419 | 419 | 2.5
8 | CC1Nc2ccc3ncc(n3n2)-c2cc(ncn2)COc2ccccc21 (stereo not drawn) [Example I-10, (E)-6-methyl-4-oxa-7-aza-1(3,6)-imidazo[1,2-b]pyridazina-2(4,6)-pyrimidine-5(1,2)-benzenacycloheptaphane] | 378 | 378 | 4.6
9 | Fc1cnc2c(c1)[C@H]1C[C@H](F)CN1c1ccc3ncc(n3n1)-c1cc(ccn1)CCO2 [Example I-56, (3^2R,3^4S,E)-3^4,4^5-difluoro-5-oxa-2(3,6)-imidazo[1,2-b]pyridazina-1(2,4), 4(3,2)-dipyridina-3(1,2)-pyrrolidinacycloheptaphane] | 9.4 | 0.9 | 0.2
10 | Fc1cnc2c(c1)[C@H]1C[C@H](F)CN1c1ccc3ncc(n3n1)-c1cc(cnn1)CCO2 [Example I-94, (3^2R,3^4S,E)-3^4,4^5-difluoro-5-oxa-2(3,6)-imidazo[1,2-b]pyridazina-1(3,5)-pyridazina-4(3,2)-pyridina-3(1,2)-pyrrolidinacycloheptaphane] | 2.5 | 1 | 0.09
11 | Fc1cnc2c(c1)[C@H]1C[C@H](F)CN1c1ccc3ncc(n3n1)-c1cc(ncn1)CO2 [Example I-60, (14bR,16S,E)-13,16-difluoro-14b,15,16,17-tetrahydro-9H-1,19-etheno-4,8-(metheno)imidazo[5,1-h]pyrido[3,2-n]pyrrolo[1,2-l][1]oxa[4,6,9,10,12]pentaazacyclopentadecine] | 22.5 | 2.5 | 0.13
12 | Fc1ccc2c(c1)[C@H]1C[C@H](F)CN1c1ccc3ncc(n3n1)-c1nccc(n1)CCO2 [Example I-86, (3^2R,3^4S,E)-3^4,4^5-difluoro-5-oxa-2(3,6)-imidazo[1,2-b]pyridazina-1(2,4)-pyrimidina-3(1,2)-pyrrolidina-4(1,2)-benzenacycloheptaphane] | 13.9 | 2.3 | 0.25
13 | CC1Nc2ccc3ncc(n3n2)-c2cc(ccn2)CCOc2ccccc21 (stereo not drawn) [Example I-9, (E)-4-methyl-6-oxa-3-aza-2(3,6)-imidazo[1,2-b]pyridazina-1(2,4)-pyridina-5(1,2)-benzenacyclooctaphane] | 308 | 297 | 11
14 | Fc1ccc2c(c1)[C@H]1C[C@H](F)CN1c1ccc3ncc(n3n1)-c1cc(cnn1)CCO2 [Example I-92, (3^2R,3^4S,E)-3^4,4^5-difluoro-5-oxa-2(3,6)-imidazo[1,2-b]pyridazina-1(3,5)-pyridazina-3(1,2)-pyrrolidina-4(1,2)-benzenacycloheptaphane] | 4.3 | 0.6 | 0.18
15 | Fc1ccc2c(c1)[C@H]1C[C@H](F)CN1c1ccc3ncc(n3n1)-c1nccc(n1)CO2 [Example I-62, (14bR,16S,E)-13,16-difluoro-14b,15,16,17-tetrahydro-9H-4,8-(azeno)-1,19-ethenobenzo[b]imidazo[1,5-h]pyrrolo[2,1-d][1]oxa[5,7,8,11]tetraazacyclopentadecine] | 13.6 | 0.7 | 0.21
16 | Fc1cnc2c(c1)[C@H]1C[C@H](F)CN1c1ccc3ncc(n3n1)-c1cc(cnn1)CO2 [Example I-68, (14bR,16S,E)-13,16-difluoro-14b,15,16,17-tetrahydro-9H-1,19-etheno-4,8-(metheno)imidazo[5,1-h]pyrido[3,2-n]pyrrolo[1,2-l][1]oxa[5,6,9,10,12]pentaazacyclopentadecine] | 2.8 | 1.6 | 0.06
17 | Fc1ccc2c(c1)[C@H]1C[C@H](F)CN1c1ccc3ncc(n3n1)-c1cc(ncn1)CO2 [Example I-58, (14bR,16S,E)-13,16-difluoro-14b,15,16,17-tetrahydro-9H-1,19-etheno-4,8-(metheno)benzo[n]imidazo[5,1-h]pyrrolo[1,2-l][1]oxa[4,6,9,10,12]pentaazacyclopentadecine] | 12.7 | 2.1 | 0.14
18 | Fc1ccc2c(c1)[C@H]1C[C@H](F)CN1c1ccc3ncc(n3n1)-c1cc(cnn1)CO2 [Example I-66, (14bR,16S,E)-13,16-difluoro-14b,15,16,17-tetrahydro-9H-1,19-etheno-4,8-(metheno)benzo[n]imidazo[5,1-h]pyrrolo[1,2-l][1]oxa[5,6,9,10,12]pentaazacyclopentadecine] | 1.3 | 0.4 | 0.05
19 | C[C@H]1Cc2ccnc(n2)-c2cnc3ccc(nn23)N2C[C@@H](F)C[C@@H]2c2cc(F)cnc2O1 [Example I-96, (3^2R,3^4S,6S,E)-3^4,4^5-difluoro-6-methyl-5-oxa-2(3,6)-imidazo[1,2-b]pyridazina-1(2,4)-pyrimidina-4(3,2)-pyridina-3(1,2)-pyrrolidinacycloheptaphane] | 3.7 | 1.4 | 0.11
20 | Fc1ccc2c(c1)[C@H]1C[C@H](F)CN1c1ccc3ncc(n3n1)-c1cc(ccn1)CCO2 [Example I-54, (3^2R,3^4S,E)-3^4,4^5-difluoro-5-oxa-2(3,6)-imidazo[1,2-b]pyridazina-1(2,4)-pyridina-3(1,2)-pyrrolidina-4(1,2)-benzenacycloheptaphane] | 2.1 | 0.4 | 0.18
21 | C[C@@H]1Cc2ccnc(c2)-c2cnc3ccc(nn23)N2C[C@@H](F)C[C@@H]2c2cc(F)ccc2O1 [Example I-39, (3^2R,3^4S,6R,E)-3^4,4^5-difluoro-6-methyl-5-oxa-2(3,6)-imidazo[1,2-b]pyridazina-1(2,4)-pyridina-3(1,2)-pyrrolidina-4(1,2)-benzenacycloheptaphane] | 0.3 | 0.1 | 0.01
